These results are taken from PubChem BioAssay (NCI).

Structures are written as SMILES.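 Where inhibition never reached the appropriate level, the endpoint shown equals the highest concentration tested. Otherwise, values were interpolated linearly from a five-concentration, 48-hour dose response in 96-well plates. Definition used: TGI = concentration required for complete inhibition of growth.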

Assay in all cases: DTP human tumour cell line panel, 48 h
Assay [1] deals with SNB-19 CNS.
For assay [2], the system named is UO-31 renal.
The test system of assay [3] is PC-3 prostate.
Assay [4] has as its system OVCAR-3 ovarian.
Assay [5] relates to HCT-15 colon.
Assay [6] has as its system MDA-MB-435.
Assay [7] deals with NCI-H460 lung.
The subject of assay [8] is TK-10 renal.
Assay [9] has as its system NCI-H23 lung.
For assay [10], the system named is HL-60(TB) leukemia.

As to `COc1c(C)c(C/C=C(\C)CC/C=C(\C)CC/C=C(\C)CCC=C(C)C)c(OC)c2ccccc12`, the TGI in [1], in assay [2], in [3], in assay [4], in assay [5] and in assay [6] was greater than 100 µM each time. Also, the TGI in [7], in [8] and in assay [9] was greater than 100 µM in each case.
For `CC(=O)Oc1cc(OC(C)=O)c2c(C)cc(=O)oc2c1`, the TGI in [1], in [2], in assay [3], in [4], in [5] and in assay [6] was greater than 100 µM throughout. The TGI in assay [8] and in assay [9] was greater than 100 µM throughout.
On to `COC([C@@H](OC(=O)c1ccccc1)[C@H](OC(=O)c1ccccc1)C(O)COC(=O)c1ccccc1)n1cc(C)c(=O)[nH]c1=O` (stereo not given in full), for which the total growth inhibition concentration (TGI) (in general, the concentration giving total growth inhibition) in assay [1] was greater than 100 µM; in assay [2] it was greater than 100 µM; in assay [3], greater than 100 µM; in assay [4] it was 97.1 µM; in assay [5], greater than 100 µM; in [6] it was greater than 100 µM. Also, the concentration for total growth inhibition (TGI) in assay [7], in assay [8] and in assay [9] was greater than 100 µM in each case.
With `O=[N+]([O-])c1ccc(N2N=C(c3ccc4ccccc4c3O)CC2c2ccc(Cl)cc2)c([N+](=O)[O-])c1` (stereo not given), the TGI in assay [2] is greater than 100 µM; in assay [3], greater than 100 µM; in [4], 79.9 µM; in assay [5] it was greater than 100 µM; in [6], 33 µM; in [7], greater than 100 µM. For the same compound, the TGI in assay [8] and in assay [9] was greater than 100 µM in each case.
On to `C[n+]1c2ccccc2c(/C=N\NS(=O)(=O)c2ccc(Cl)cc2)c2ccccc21`, for which the TGI in assay [1] is greater than 100 µM; in [2], greater than 100 µM; in assay [4], greater than 100 µM; in assay [5], greater than 100 µM; in assay [10], 88.4 µM; in [7] it was greater than 100 µM. The concentration for total growth inhibition (TGI) in assay [8] and in assay [9] was greater than 100 µM each time.
On to `CC(=O)OCCCCn1cc(Cn2ccc(=O)n(Cc3cn(CCCCOC(C)=O)nn3)c2=O)nn1`, for which the TGI in assay [1], in [2], in assay [3], in assay [4], in [5] and in assay [6] was greater than 100 µM in each case. Further, the TGI in assay [8] and in [9] was greater than 100 µM each time.
`O=[N+]([O-])c1ccc([N+]2=NC(c3ccccc3)=NN(c3ccccc3)C2)cc1`: the TGI in assay [1], in assay [2], in [4], in assay [5], in [10] and in assay [7] was greater than 100 µM throughout. The TGI in [8] and in assay [9] was greater than 100 µM each time.
In the case of `CN(Cc1cnc2nc(N)nc(N)c2n1)c1ccc(C(=O)NC(CCC(=O)NC(CC(P(=O)(O)O)P(=O)(O)O)C(=O)O)C(=O)O)cc1` (stereo not given), the TGI in assay [1], in assay [2], in assay [3], in assay [4], in assay [5] and in assay [6] was greater than 100 µM each time. For the same compound, the TGI in [7], in [8] and in [9] was greater than 100 µM throughout.
On to `Nc1nc(=O)n(C2OC(CO)C(O)C2O)c2ncc(-c3ccc(-c4ccccc4)cc3)nc12` (stereo not given), for which the total growth inhibition concentration (TGI) in assay [1], in assay [2], in assay [3], in assay [5], in assay [6] and in assay [7] was greater than 100 µM throughout. Moreover, the TGI in assay [8] and in assay [9] was greater than 100 µM each time.
Turning to `CN(C)c1ccc(/C=C/C(=O)O)cc1`, the concentration for total growth inhibition (TGI) in assay [1], in assay [2], in assay [4], in [5], in [10] and in [7] was greater than 100 µM in each case.
As for `CCN(CC)CCOc1ccc(C(O)(Cc2ccc(OC)cc2)c2ccccc2)cc1` (stereo not given), the TGI was 67.5 µM in [1]; 62 µM in assay [2]; greater than 100 µM in assay [4]; 51 µM in [5]; 24.9 µM in assay [10]; 51.9 µM in assay [7]. For the same compound, the TGI in assay [8] came to 76.4 µM; in assay [9], 45.1 µM.
For `Cc1ccc(S(=O)(=O)n2ccc(-c3ccc4ccn(S(=O)(=O)c5ccc(C)cc5)c4c3)c2)cc1`, the TGI in assay [1], in assay [2], in assay [3], in assay [4], in assay [5] and in assay [6] was greater than 100 µM throughout. The TGI in assay [10], in [8] and in assay [9] was greater than 100 µM each time.
As to `CCCN(CCC)C1CCc2c(ccc3cc[nH]c23)C1` (stereo not given), the TGI in assay [1], in assay [2], in assay [3], in assay [4], in assay [5] and in assay [6] was greater than 100 µM throughout. In addition, the TGI in assay [7], in assay [8] and in [9] was greater than 100 µM in each case.
As to `Nc1ccc2ccc(-c3ccc[nH]3)nc2n1`, the TGI in assay [1], in [2], in [3], in [4], in assay [5] and in assay [6] was greater than 100 µM in each case. Moreover, the TGI in [7], in assay [8] and in [9] was greater than 100 µM throughout.
As to `COP(=O)(O)C(N)Cc1c[nH]c2ccccc12` (stereo not given), the TGI in assay [1], in assay [2], in assay [3], in assay [4], in assay [5] and in assay [6] was greater than 100 µM each time. For the same compound, the TGI in assay [7], in assay [8] and in assay [9] was greater than 100 µM each time.
